Read-outs that look alike come from different tables or passages of the source.
Columns and labels:
NCI-H358 cells = assay: NCI-H358 3D tumor spheroid growth inhibition; type: cell-based; conditions: Homo sapiens, NCI-H358, 168 h, read-out: H358 EC50
Outline: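 Cells seeded at 1000/well in ultra-low-attachment plates at 37 °C, 5% CO2 to form spheroids, then incubated a further 7 days with compounds. Viability by 3D CellTiter Glo luminescence; % inhibition versus DMSO wells, with normalized cellular IC50 reported as EC50.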

[1] = biological target: SHP-2 full length protein (Homo sapiens (Human), UniProt Q06124); assay: SHP-2 biochemical DiFMUP pseudosubstrate-fluorogenic assay; conditions: 0.2 nM SHP-2, 1 μM IRS-1 activator peptide, 50 μM DiFMUP; read-out: SHP2 IC50
Outline: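 In-house recombinant full-length SHP-2 preincubated 90 min at room temperature with compounds (1:3 series, 10,000–0.005 nM), then DiFMUP substrate added at 50 μM final for 30 min more. Fluorescence normalised to DMSO wells (100%) and IC50 derived by curve fitting.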

[2] = 3D spheroids, 7 days, 3D CellTiter Glo, cellular IC50 designated EC50

Structure (SMILES) | EC50 (NCI-H358 cells; [2]) | IC50 [1] | EC50 (NCI-H358 cells)
C[C@@H]1OCC2(CCN(c3ncc(Sc4cc(N)nc5ccccc45)c4nccn34)CC2)[C@@H]1N [Example 111, (3S,4S)-8-(8-((2-aminoquinolin-4-yl)thio)imidazo[1,2-c]pyrimidin-5-yl)-3-methyl-2-oxa-8-azaspiro[4.5]decan-4-amine] | 170 nM | 7.1 nM | 
C[C@@H]1OCC2(CCN(c3ncc(Sc4ccnc5c(C(N)=O)cccc45)c4nccn34)CC2)[C@@H]1N [Example 113, 4-((5-((3S,4S)-4-amino-3-methyl-2-oxa-8-azaspiro[4.5]decan-8-yl)imidazo[1,2-c]pyrimidin-8-yl)thio)quinoline-8-carboxamide] | 340 nM | 11 nM | 
C[C@@H]1OCC2(CCN(c3ncc(Sc4ncnc5ccccc45)c4nccn34)CC2)[C@@H]1N [Example 117, (3S,4S)-3-methyl-8-(8-(quinazolin-4-ylthio)imidazo[1,2-c]pyrimidin-5-yl)-2-oxa-8-azaspiro[4.5]decan-4-amine] | > 12500 nM | > 10000 nM | 
NCC1CCN(c2ncc(Sc3cccc(Cl)c3Cl)c3nccn23)CC1 [Example 119, (1-(8-((2,3-dichlorophenyl)thio)imidazo[1,2-c]pyrimidin-5-yl)piperidin-4-yl)methanamine] | 2200 nM | 73 nM | 
C[C@@H]1OCC2(CCN(c3ncc(Sc4ccc(C(N)=O)c5ccccc45)c4nccn34)CC2)[C@@H]1N [Example 120, 4-((5-((3S,4S)-4-amino-3-methyl-2-oxa-8-azaspiro[4.5]decan-8-yl)imidazo[1,2-c]pyrimidin-8-yl)thio)-1-naphthamide] | 500 nM | 26 nM | 
Nc1nccc(Sc2cnc(N3CCC4(CC3)Cc3ccccc3[C@H]4N)n3ccnc23)c1Cl [Example 121, (S)-1′-(8-((2-amino-3-chloropyridin-4-yl)thio)imidazo[1,2-c]pyrimidin-5-yl)-1,3-dihydrospiro[indene-2,4′-piperidin]-1 amine] |  | 4.8 nM | 4.2 nM

Further lines, with some results ahead:

EC50 (NCI-H358 cells; [2]) | IC50 [1] | Structure (SMILES) | EC50 (NCI-H358 cells)
56 nM | 10 nM | CC(=O)Nc1cccc2c(Sc3cnc(N4CCC5(CC4)CO[C@@H](C)[C@H]5N)n4ccnc34)ccnc12 [Example 112, N-(4-((5-((3S,4S)-4-amino-3-methyl-2-oxa-8-azaspiro[4.5]decan-8-yl)imidazo[1,2-c]pyrimidin-8-yl)thio)quinolin-8-yl)acetamide] | 
64 nM | 6.8 nM | C[C@@H]1OCC2(CCN(c3ncc(Sc4ccnc5ccccc45)c4nccn34)CC2)[C@@H]1N [Example 114, (3S,4S)-3-methyl-8-(8-(quinolin-4-ylthio)imidazo[1,2-c]pyrimidin-5-yl)-2-oxa-8-azaspiro[4.5]decan-4-amine] | 
90 nM | 8.4 nM | C[C@@H]1OCC2(CCN(c3ncc(Sc4ccnc5ccc(F)cc45)c4nccn34)CC2)[C@@H]1N [Example 115, (3S,4S)-8-(8-((6-fluoroquinolin-4-yl)thio)imidazo[1,2-c]pyrimidin-5-yl)-3-methyl-2-oxa-8-azaspiro[4.5]decan-4-amine] | 
72 nM | 8 nM | C[C@@H]1OCC2(CCN(c3ncc(Sc4ccnc5cc(F)ccc45)c4nccn34)CC2)[C@@H]1N [Example 116, (3S,4S)-8-(8-((7-fluoroquinolin-4-yl)thio)imidazo[1,2-c]pyrimidin-5-yl)-3-methyl-2-oxa-8-azaspiro[4.5]decan-4-amine] | 
70 nM | 9.1 nM | C[C@@H]1OCC2(CCN(c3ncc(Sc4ccnc5c(F)cccc45)c4nccn34)CC2)[C@@H]1N [Example 122, (3S,4S)-8-(8-((8-fluoroquinolin-4-yl)thio)imidazo[1,2-c]pyrimidin-5-yl)-3-methyl-2-oxa-8-azaspiro[4.5]decan-4-amine] | 
95 nM | 6.8 nM | COc1ccc2c(Sc3cnc(N4CCC5(CC4)CO[C@@H](C)[C@H]5N)n4ccnc34)ccnc2c1 [Example 123, (3S,4S)-8-(8-((7-methoxyquinolin-4-yl)thio)imidazo[1,2-c]pyrimidin-5-yl)-3-methyl-2-oxa-8-azaspiro[4.5]decan-4-amine] | 

Reference: patent US11179397B2, “Imidazopyrimidine derivatives” (Gilead Sciences, Inc., priority 2018, dated 2021)
